Experimental data as given in US8785457B2 (Cellzome Limited, priority 2009, dated 2014).
Structures can show the parent of a compound that is named as a salt. Where two headings read alike, the source gives them in different places.

What was measured:
PI3 Kbeta (PI3 Kb) = biological target: T1, PI3 Kbeta (PI3 Kb) (Homo sapiens, UniProt P42338); assay: kinobeads assay, PI3Kbeta; type: binding
T1 construct: endogenous in cells; host or cells: cell lysate
Procedure: (§1) The kinobeads assay was performed as a competitive binding assay in which test compounds were added directly into a cell lysate. Test compounds (at various concentrations) and the affinity matrix (beads with immobilized phenylmorpholin-chromen ligand) were added to cell lysate aliquots and allowed to bind to the proteins contained in the lysate sample. After the incubation time the beads with captured proteins were separated from the lysate. Bound proteins were then eluted and the presence of kinases was detected and quantified using a multiplexed immunodetection format. Dose response curves for individual kinases were generated and IC50 values calculated.
(§2) The effect of the compounds on the kinases PI3Kalpha (PI3Ka), PI3 Kbeta (PI3 Kb) and PI3 Kgamma (PI3 Kg) were tested in the kinobeads assay as described (WO-A 2009/098021).

mTOR = biological target: T2, mTOR (Homo sapiens, UniProt P42345); assay: mTOR kinobeads assay (competitive binding in Jurkat cell lysate, immunodetection)
T2 construct: endogenous in cells; host or cells: Jurkat, clone E6-1 (ATCC TIB-152) cell lysate
Procedure, shortened: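 IC50 derived from dose-response curves of mTOR captured on immobilized phenylmorpholin-chromen beads, detected by antibody dot blot with infrared fluorescence.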

PI3 Kgamma (PI3 Kg) = biological target: T3, PI3 Kgamma (PI3 Kg) (Homo sapiens, UniProt P48736); assay: kinobeads assay, PI3Kgamma; type: binding
T3 construct: endogenous in cells; host or cells: cell lysate
Procedure: as §1, §2

PI3Kalpha (PI3Ka) = biological target: T4, PI3Kalpha (PI3Ka) (Homo sapiens, UniProt P42336); assay: kinobeads assay, PI3Kalpha; type: binding
T4 construct: endogenous in cells; host or cells: cell lysate
Procedure: as §1, §2

[1] = biological target: T5, DNA-dependent protein kinase (DNA-PK) (Homo sapiens, UniProt P78527); assay: kinobeads assay, DNA-PK; type: binding
T5 construct: endogenous in cells; host or cells: Jurkat, clone E6-1 (ATCC TIB-152) cell lysate
Procedure, shortened: (§3)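 IC50 values came from dose-response curves after test compound (1:3 series) competed with an immobilized phenylmorpholin-chromen affinity matrix for kinases in Jurkat lysate at 5 mg/mL protein. Eluted captured DNA-PK and PI3Kδ were measured by specific-antibody dot blot and infrared imaging. Buffer was Tris pH 7.4, NP40, MgCl2, NaCl, vanadate, DTT, NaF.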

PI3K delta (PI3 Kd) = biological target: T6, PI3K delta (PI3 Kd) (Homo sapiens, UniProt O00329); assay: kinobeads assay, PI3K delta; type: binding
T6 construct: endogenous in cells; host or cells: Jurkat, clone E6-1 (ATCC TIB-152) cell lysate
Procedure, shortened: as §3

[2] = kinobeads assay, Table 6, read-out: Inhibition values (IC50) PI3Kb
[3] = kinobeads assay, Table 6, read-out: Inhibition values (IC50) mTOR
[4] = kinobeads assay, Table 6, read-out: Inhibition values (IC50) PI3Kg
[5] = kinobeads assay, Table 6, read-out: Inhibition values (IC50) PI3Ka
[6] = kinobeads assay, Table 6, read-out: Inhibition values (IC50) DNAPK
[7] = kinobeads assay, Table 6, read-out: Inhibition values (IC50) PI3Kd
[8] = Further Kinobeads Data, read-out: PI3Kb
[9] = Further Kinobeads Data, read-out: mTor
[10] = Further Kinobeads Data, read-out: PI3Kg
[11] = Further Kinobeads Data, read-out: DNAPK
[12] = Further Kinobeads Data, read-out: PI3Kd
[13] = Further Kinobeads Data, read-out: PI3Ka

T4 sequence (P42336 whole entry): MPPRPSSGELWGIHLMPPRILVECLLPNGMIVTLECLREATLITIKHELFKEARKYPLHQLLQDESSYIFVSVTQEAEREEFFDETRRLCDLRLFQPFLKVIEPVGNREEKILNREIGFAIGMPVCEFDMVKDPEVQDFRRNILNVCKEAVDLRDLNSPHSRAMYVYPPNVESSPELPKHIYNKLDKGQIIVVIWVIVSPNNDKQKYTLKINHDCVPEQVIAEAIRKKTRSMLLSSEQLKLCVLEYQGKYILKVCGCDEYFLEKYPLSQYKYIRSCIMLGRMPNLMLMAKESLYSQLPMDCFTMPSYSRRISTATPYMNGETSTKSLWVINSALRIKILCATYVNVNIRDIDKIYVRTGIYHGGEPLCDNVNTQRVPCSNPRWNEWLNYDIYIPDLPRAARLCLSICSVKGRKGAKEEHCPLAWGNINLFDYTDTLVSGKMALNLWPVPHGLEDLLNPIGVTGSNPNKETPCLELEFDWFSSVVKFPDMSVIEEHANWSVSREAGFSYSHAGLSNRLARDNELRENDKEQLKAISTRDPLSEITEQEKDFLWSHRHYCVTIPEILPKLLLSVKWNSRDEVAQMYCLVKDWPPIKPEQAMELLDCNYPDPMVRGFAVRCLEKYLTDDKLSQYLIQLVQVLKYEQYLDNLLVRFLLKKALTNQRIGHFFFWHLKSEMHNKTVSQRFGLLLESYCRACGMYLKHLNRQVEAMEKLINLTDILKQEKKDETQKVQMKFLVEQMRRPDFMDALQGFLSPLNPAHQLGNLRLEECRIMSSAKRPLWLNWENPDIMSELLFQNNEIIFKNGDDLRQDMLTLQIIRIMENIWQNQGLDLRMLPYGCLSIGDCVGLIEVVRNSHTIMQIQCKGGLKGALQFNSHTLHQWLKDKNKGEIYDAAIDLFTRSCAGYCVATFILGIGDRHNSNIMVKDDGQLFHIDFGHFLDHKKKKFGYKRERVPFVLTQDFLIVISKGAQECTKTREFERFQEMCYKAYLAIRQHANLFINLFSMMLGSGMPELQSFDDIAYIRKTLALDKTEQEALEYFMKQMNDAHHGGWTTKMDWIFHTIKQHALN
T4 sequence (P27986 whole entry partner): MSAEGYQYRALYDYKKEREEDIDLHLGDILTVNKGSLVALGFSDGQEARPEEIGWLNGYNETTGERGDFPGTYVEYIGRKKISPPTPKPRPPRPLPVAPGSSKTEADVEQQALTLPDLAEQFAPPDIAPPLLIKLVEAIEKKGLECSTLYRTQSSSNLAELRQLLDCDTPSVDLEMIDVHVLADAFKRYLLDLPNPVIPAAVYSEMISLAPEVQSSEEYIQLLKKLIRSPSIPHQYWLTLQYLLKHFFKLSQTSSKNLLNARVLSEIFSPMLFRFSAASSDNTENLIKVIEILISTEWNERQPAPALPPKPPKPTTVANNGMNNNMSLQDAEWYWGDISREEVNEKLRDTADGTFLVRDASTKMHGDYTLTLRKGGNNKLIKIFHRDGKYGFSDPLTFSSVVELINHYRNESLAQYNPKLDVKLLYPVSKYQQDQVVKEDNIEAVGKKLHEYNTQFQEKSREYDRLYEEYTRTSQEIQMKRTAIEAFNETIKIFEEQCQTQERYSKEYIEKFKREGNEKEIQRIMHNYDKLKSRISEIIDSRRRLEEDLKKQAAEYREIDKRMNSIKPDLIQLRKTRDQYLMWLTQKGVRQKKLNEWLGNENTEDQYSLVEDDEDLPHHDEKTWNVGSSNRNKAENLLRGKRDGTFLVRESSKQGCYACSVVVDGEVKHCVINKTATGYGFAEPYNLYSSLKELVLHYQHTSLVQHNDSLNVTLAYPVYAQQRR
T6 sequence (O00329 whole entry): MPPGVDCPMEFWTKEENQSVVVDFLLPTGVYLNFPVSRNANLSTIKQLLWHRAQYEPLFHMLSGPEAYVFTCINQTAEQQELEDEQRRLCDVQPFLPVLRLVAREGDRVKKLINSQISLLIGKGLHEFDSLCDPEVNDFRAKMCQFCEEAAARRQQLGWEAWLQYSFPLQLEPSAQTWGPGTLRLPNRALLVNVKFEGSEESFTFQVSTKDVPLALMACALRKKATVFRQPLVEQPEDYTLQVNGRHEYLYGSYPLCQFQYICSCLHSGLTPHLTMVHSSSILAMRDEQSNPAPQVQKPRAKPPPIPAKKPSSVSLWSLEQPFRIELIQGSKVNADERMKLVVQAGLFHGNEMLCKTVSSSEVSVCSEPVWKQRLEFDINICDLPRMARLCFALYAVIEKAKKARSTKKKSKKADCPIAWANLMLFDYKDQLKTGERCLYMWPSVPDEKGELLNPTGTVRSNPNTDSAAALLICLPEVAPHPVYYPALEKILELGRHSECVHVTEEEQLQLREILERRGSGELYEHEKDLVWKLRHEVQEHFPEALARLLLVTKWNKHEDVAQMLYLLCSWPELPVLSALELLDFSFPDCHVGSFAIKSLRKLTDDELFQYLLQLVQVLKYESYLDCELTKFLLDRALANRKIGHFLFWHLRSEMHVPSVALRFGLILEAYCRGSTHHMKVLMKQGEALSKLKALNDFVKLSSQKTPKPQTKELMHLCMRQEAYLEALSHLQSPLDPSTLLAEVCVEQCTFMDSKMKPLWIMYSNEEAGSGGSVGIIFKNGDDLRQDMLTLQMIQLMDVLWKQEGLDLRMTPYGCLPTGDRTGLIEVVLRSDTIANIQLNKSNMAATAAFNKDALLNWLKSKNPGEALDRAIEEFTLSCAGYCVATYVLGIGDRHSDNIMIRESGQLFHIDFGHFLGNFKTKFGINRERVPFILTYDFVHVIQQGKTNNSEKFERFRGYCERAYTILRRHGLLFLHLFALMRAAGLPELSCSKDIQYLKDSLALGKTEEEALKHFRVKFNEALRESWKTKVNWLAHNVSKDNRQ
T6 sequence (P27986 whole entry partner): as the sequence (P27986 whole entry partner) above
T3 sequence (P48736 whole entry): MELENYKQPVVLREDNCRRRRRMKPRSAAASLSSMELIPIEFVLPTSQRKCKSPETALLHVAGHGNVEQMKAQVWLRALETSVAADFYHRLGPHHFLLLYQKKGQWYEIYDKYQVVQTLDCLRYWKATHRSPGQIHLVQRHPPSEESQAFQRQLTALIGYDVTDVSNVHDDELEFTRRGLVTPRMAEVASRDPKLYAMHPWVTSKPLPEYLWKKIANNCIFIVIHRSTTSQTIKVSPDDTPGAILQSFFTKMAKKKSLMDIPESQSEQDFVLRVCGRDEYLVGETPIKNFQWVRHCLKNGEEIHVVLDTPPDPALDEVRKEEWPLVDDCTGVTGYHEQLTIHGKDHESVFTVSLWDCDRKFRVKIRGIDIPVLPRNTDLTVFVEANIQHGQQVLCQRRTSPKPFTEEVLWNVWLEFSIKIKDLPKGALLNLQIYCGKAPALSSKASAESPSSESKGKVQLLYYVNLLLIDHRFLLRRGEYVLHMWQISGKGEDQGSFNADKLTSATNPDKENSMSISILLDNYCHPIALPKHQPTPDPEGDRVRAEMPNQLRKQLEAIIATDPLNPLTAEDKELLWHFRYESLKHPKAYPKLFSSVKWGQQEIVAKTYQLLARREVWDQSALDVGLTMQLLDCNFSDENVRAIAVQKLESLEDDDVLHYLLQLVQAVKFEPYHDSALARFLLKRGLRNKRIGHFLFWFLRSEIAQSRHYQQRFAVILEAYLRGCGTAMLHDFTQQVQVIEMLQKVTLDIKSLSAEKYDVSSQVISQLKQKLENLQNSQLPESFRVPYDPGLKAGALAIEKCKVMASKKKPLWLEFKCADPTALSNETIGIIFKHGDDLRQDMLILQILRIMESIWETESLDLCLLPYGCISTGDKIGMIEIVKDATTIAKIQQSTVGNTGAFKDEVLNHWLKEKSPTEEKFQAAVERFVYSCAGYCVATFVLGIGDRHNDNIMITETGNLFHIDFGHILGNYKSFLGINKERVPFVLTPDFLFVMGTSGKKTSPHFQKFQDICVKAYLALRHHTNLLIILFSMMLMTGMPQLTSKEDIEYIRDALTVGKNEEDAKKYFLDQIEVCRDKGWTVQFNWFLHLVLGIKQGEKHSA
T1 sequence (P42338 whole entry): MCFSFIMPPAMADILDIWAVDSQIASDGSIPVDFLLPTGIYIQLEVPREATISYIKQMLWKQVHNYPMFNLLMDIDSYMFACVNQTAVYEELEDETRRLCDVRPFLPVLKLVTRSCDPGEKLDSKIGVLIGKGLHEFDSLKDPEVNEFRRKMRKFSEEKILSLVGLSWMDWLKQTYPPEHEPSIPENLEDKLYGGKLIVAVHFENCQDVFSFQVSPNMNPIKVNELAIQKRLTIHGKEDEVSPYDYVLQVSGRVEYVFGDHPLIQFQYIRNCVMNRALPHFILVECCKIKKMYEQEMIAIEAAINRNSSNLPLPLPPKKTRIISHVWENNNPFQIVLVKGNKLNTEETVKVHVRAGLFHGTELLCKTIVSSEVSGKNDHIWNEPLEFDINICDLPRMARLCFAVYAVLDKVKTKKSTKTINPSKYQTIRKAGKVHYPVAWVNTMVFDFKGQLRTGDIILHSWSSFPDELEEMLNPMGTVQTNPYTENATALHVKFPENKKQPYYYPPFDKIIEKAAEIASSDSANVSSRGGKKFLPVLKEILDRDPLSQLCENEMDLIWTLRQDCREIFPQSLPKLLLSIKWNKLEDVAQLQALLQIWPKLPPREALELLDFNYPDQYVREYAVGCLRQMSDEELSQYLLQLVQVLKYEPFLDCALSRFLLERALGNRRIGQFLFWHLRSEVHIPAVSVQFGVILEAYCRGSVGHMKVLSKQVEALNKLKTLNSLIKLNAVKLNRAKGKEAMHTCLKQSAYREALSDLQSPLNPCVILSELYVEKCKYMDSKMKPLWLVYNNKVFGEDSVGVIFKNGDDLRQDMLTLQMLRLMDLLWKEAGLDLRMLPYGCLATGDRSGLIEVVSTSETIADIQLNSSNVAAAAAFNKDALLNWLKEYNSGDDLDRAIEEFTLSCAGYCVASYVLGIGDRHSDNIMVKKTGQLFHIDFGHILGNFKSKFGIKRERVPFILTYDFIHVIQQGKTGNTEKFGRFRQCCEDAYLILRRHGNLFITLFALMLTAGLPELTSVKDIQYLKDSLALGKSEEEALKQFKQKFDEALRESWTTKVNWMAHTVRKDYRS
T1 sequence (P27986 whole entry partner): as the sequence (P27986 whole entry partner) above

| Structure (SMILES) | IC50 (PI3 Kbeta (PI3 Kb); [2]) | IC50 (mTOR; [3]) | IC50 (PI3 Kgamma (PI3 Kg); [4]) | IC50 (PI3Kalpha (PI3Ka); [5]) | IC50 [1, 6] | IC50 (PI3K delta (PI3 Kd); [7]) | IC50 (PI3 Kbeta (PI3 Kb); [8]) | IC50 (mTOR; [9]) | IC50 (PI3 Kgamma (PI3 Kg); [10]) | PI3Ka (PI3Kalpha (PI3Ka); Further Kinobeads Data) | IC50 [1, 11] | IC50 (PI3K delta (PI3 Kd); [12]) | IC50 (PI3Kalpha (PI3Ka); [13]) |
| --- | --- | --- | --- | --- | --- | --- | --- | --- | --- | --- | --- | --- | --- |
| CCNC(=O)Nc1c(F)cc(-c2nc3c(c(N4CCOC[C@@H]4C)n2)CN(C)C3)cc1F [Example 139, (S)-1-(2,6-difluoro-4-(6-methyl-4-(3-methylmorpholino)-6,7-dihydro-5H-pyrrolo[3,4-d]pyrimidin-2-yl)phenyl)-3-ethylurea] | – | – | – | – | – | – | > 10 µM | 1 to 10 µM | > 10 µM | D (D >10 μM) | > 10 µM | > 10 µM | – |
| CCNC(=O)Nc1ccc(-c2nc3c(c(N4CCOC[C@@H]4C)n2)CN(C)C3)c(F)c1F [Example 140, (S)-1-(2,3-difluoro-4-(6-methyl-4-(3-methylmorpholino)-6,7-dihydro-5H-pyrrolo[3,4-d]pyrimidin-2-yl)phenyl)-3-ethylurea] | – | – | – | – | – | – | > 10 µM | 1 to 10 µM | > 10 µM | D (D >10 μM) | > 10 µM | > 10 µM | – |
| CCNC(=O)Nc1cc(F)c(-c2nc3c(c(N4CCOC[C@@H]4C)n2)CN(C(=O)OCC)C3)c(F)c1 [Example 142, (S)-ethyl 2-(4-(3-ethylureido)-2,6-difluorophenyl)-4-(3-methylmorpholino)-5H-pyrrolo[3,4-d]pyrimidine-6(7H)-carboxylate] | – | – | – | – | – | – | > 10 µM | > 10 µM | > 10 µM | D (D >10 μM) | > 10 µM | > 10 µM | – |
| CC(C)(C)OC(=O)N1Cc2nc(-c3ccc(NC(=O)NC4CC4)cc3F)nc(N3CCOCC3)c2C1 [Example 143, tert-Butyl 2-(4-(3-cyclopropylureido)-2-fluorophenyl)-4-morpholino-5H-pyrrolo[3,4-d]pyrimidine-6(7H)-carboxylate] | – | – | – | – | – | – | > 10 µM | < 0.1 µM | > 10 µM | D (D >10 μM) | > 10 µM | > 10 µM | – |
| CCNC(=O)Nc1ccc(-c2nc3c(c(N4CCOCC4)n2)CN(C(=O)OC(C)(C)C)C3)c(F)c1 [Example 145, tert-butyl 2-(4-(3-ethylureido)-2-fluorophenyl)-4-morpholino-5H-pyrrolo[3,4-d]pyrimidine-6(7H)-carboxylate] | – | – | – | – | – | – | > 10 µM | 0.1 to 1 µM | > 10 µM | D (D >10 μM) | > 10 µM | > 10 µM | – |
| Cl.O=C(Nc1ccc(-c2nc3c(c(N4CCOCC4)n2)CNC3)c(F)c1)NC1CC1 [Example 148, 1-(Cyclopropyl)-3-(3-fluoro-4-(4-morpholino-6,7-dihydro-5H-pyrrolo[3,4-d]pyrimidin-2-yl)phenyl)urea hydrochloride] | – | – | – | – | – | – | > 10 µM | < 0.1 µM | > 10 µM | D (D >10 μM) | > 10 µM | > 10 µM | – |
| CCNC(=O)Nc1ccc(-c2nc3c(c(N4CCOCC4)n2)CNC3)c(F)c1 [Example 150, 1-Ethyl-3-(3-fluoro-4-(4-morpholino-6,7-dihydro-5H-pyrrolo[3,4-d]pyrimidin-2-yl)phenyl)urea hydrochloride] | – | – | – | – | – | – | > 10 µM | < 0.1 µM | > 10 µM | – | > 10 µM | > 10 µM | 1 to 10 µM |
| CCNC(=O)Nc1ccc(-c2nc3c(c(N4CCOC[C@@H]4C)n2)CN(C(C)=O)C3)c(F)c1 [Example 157, (S)-1-(4-(6-acetyl-4-(3-methylmorpholino)-6,7-dihydro-5H-pyrrolo[3,4-d]pyrimidin-2-yl)-3-fluorophenyl)-3-ethylurea] | – | – | – | – | – | – | > 10 µM | < 0.1 µM | > 10 µM | D (D >10 μM) | > 10 µM | 1 to 10 µM | – |
| CCNC(=O)Nc1ccc(-c2nc3c(c(N4CCOC[C@@H]4C)n2)CNC3)c(F)c1.Cl [Example 158, (S)-1-ethyl-3-(3-fluoro-4-(4-(3-methylmorpholino)-6,7-dihydro-5H-pyrrolo[3,4-d]pyrimidin-2-yl)phenyl)urea hydrochloride] | – | – | – | – | – | – | > 10 µM | < 0.1 µM | > 10 µM | D (D >10 μM) | > 10 µM | > 10 µM | – |
| CCNC(=O)Nc1ccc(-c2nc3c(c(N4CCOCC4)n2)CN(C(C)=O)C3)c(F)c1 [Example 161, 1-(4-(6-acetyl-4-morpholino-6,7-dihydro-5H-pyrrolo[3,4-d]pyrimidin-2-yl)-3-fluorophenyl)-3-ethylurea] | – | – | – | – | – | – | > 10 µM | < 0.1 µM | > 10 µM | D (D >10 μM) | > 10 µM | > 10 µM | – |
| CC(=O)N1Cc2nc(-c3ccc(NC(=O)NC4CC4)cc3F)nc(N3CCOCC3)c2C1 [Example 166, 1-(4-(6-Acetyl-4-morpholino-6,7-dihydro-5H-pyrrolo[3,4-d]pyrimidin-2-yl)-3-fluorophenyl)-3-cyclopropylurea] | – | – | – | – | – | – | > 10 µM | < 0.1 µM | > 10 µM | D (D >10 μM) | > 10 µM | > 10 µM | – |
| COC(=O)N1Cc2nc(-c3ccc(NC(=O)NCCO)cc3F)nc(N3CCOCC3)c2C1 [Example 175, Methyl 2-(2-fluoro-4-(3-(2-hydroxyethyl)ureido)phenyl)-4-morpholino-5H-pyrrolo[3,4-d]pyrimidine-6(7H)-carboxylate] | – | – | – | – | – | – | > 10 µM | 0.1 to 1 µM | > 10 µM | D (D >10 μM) | > 10 µM | > 10 µM | – |

Other lines, results leading:

| IC50 (PI3 Kbeta (PI3 Kb); [2]) | IC50 (mTOR; [3]) | IC50 (PI3 Kgamma (PI3 Kg); [4]) | IC50 (PI3Kalpha (PI3Ka); [5]) | IC50 [1, 6] | IC50 (PI3K delta (PI3 Kd); [7]) | IC50 (PI3 Kbeta (PI3 Kb); [8]) | IC50 (mTOR; [9]) | IC50 (PI3 Kgamma (PI3 Kg); [10]) | PI3Ka (PI3Kalpha (PI3Ka); Further Kinobeads Data) | IC50 [1, 11] | IC50 (PI3K delta (PI3 Kd); [12]) | IC50 (PI3Kalpha (PI3Ka); [13]) | Structure (SMILES) |
| --- | --- | --- | --- | --- | --- | --- | --- | --- | --- | --- | --- | --- | --- |
| 1 to 10 µM | < 0.1 µM | > 10 µM | 1 to 10 µM | > 10 µM | 1 to 10 µM | – | – | – | – | – | – | – | C[C@H]1COCCN1c1nc(-c2ccc(NC(=O)NC3CC3)cc2)nc2c1CN(C(=O)CCN1CCCC1=O)C2 [Example 132, (S)-1-cyclopropyl-3-(4-(4-(3-methylmorpholino)-6-(3-(2-oxopyrrolidin-1-yl)propanoyl)-6,7-dihydro-5H-pyrrolo[3,4-d]pyrimidin-2-yl)phenyl)urea] |
| 1 to 10 µM | < 0.1 µM | > 10 µM | 1 to 10 µM | > 10 µM | 1 to 10 µM | – | – | – | – | – | – | – | CC(=O)NCCCC(=O)N1Cc2nc(-c3ccc(NC(=O)NC4CC4)cc3)nc(N3CCOC[C@@H]3C)c2C1 [Example 133, (S)—N-(4-(2-(4-(3-cyclopropylureido)phenyl)-4-(3-methylmorpholino)-5H-pyrrolo[3,4-d]pyrimidin-6(7H)-yl)-4-oxobutyl)acetamide] |
| > 10 µM | < 0.1 µM | > 10 µM | 1 to 10 µM | > 10 µM | > 10 µM | – | – | – | – | – | – | – | C[C@H]1COCCN1c1nc(-c2ccc(NC(=O)NC3CC3)cc2)nc2c1CN(CCCC(=O)O)C2 [Example 134, (S)-4-(2-(4-(3-cyclopropylureido)phenyl)-4-(3-methylmorpholino)-5H-pyrrolo[3,4-d]pyrimidin-6(7H)-yl)butanoic acid] |
| 1 to 10 µM | < 0.1 µM | > 10 µM | 1 to 10 µM | > 10 µM | 1 to 10 µM | – | – | – | – | – | – | – | CC(=O)N(C)CCC(=O)N1Cc2nc(-c3ccc(NC(=O)NC4CC4)cc3)nc(N3CCOC[C@@H]3C)c2C1 [Example 135, (S)—N-(3-(2-(4-(3-cyclopropylureido)phenyl)-4-(3-methylmorpholino)-5H-pyrrolo[3,4-d]pyrimidin-6(7H)-yl)-3-oxopropyl)-N-methylacetamide] |
| 1 to 10 µM | < 0.1 µM | > 10 µM | 1 to 10 µM | > 10 µM | 1 to 10 µM | – | – | – | – | – | – | – | C[C@H]1COCCN1c1nc(-c2ccc(NC(=O)NC3CC3)cc2)nc2c1CN(C(=O)CCNC(N)=O)C2 [Example 136, (S)-1-cyclopropyl-3-(4-(4-(3-methylmorpholino)-6-(3-ureidopropanoyl)-6,7-dihydro-5H-pyrrolo[3,4-d]pyrimidin-2-yl)phenyl)urea] |
| – | – | – | – | – | – | > 10 µM | 0.1 to 1 µM | > 10 µM | D (D >10 μM) | > 10 µM | > 10 µM | – | C[C@H]1COCCN1c1nc(-c2ccc(NC(=O)NC3CC3)cc2F)nc2c1CN(C(=O)OC(C)(C)C)C2 [Example 144, (S)-tert-Butyl 2-(4-(3-cyclopropylureido)-2-fluorophenyl)-4-(3-methylmorpholino)-5H-pyrrolo[3,4-d]pyrimidine-6(7H)-carboxylate] |
| – | – | – | – | – | – | > 10 µM | 0.1 to 1 µM | > 10 µM | – | > 10 µM | > 10 µM | 1 to 10 µM | C[C@H]1COCCN1c1nc(-c2ccc(NC(=O)NC3CC3)cc2F)nc2c1CNC2 [Example 149, (S)-1-(Cyclopropyl)-3-(3-fluoro-4-(4-(3-methylmorpholino)-6,7-dihydro-5H-pyrrolo[3,4-d]pyrimidin-2-yl)phenyl)urea hydrochloride] |
